System: NSC cultures
Test: Hox protein expression in NSC cultures after RA treatment (immunocytochemistry, flow cytometry)
Type: cell-based, human
Procedure: Assessment of neuroectoderm or mesoderm fate transition by flow cytometry. Grey histogram, IgG control; red histogram, antigen of interest. Data are presented as mean±standard deviation calculated from two biological replicates. (FIG. 8B) For experiments in panels FIGS. 8C-8F, neuromesodermal propagation was halted by removing FGF8b/CHIR 99021/GDF11 and adding RA. Assays were conducted after 4 days of RA treatment. (FIG. 8C) HOX profiles generated after RA treatment. Each gene is normalized to its maximum expression. Error bars are standard deviation calculated from duplicate reactions. (FIG. 8D) HoxB4 and HoxD10 expression in neuroepithelial cultures after RA treatment. Scale bars, 100 m. (FIG. 8E) Purity of Sox2, Pax6, HoxB4, and HoxD10 after 4 days of RA treatment. Sox2, Pax6, and HoxB4 were quantified using flow cytometry and HoxD10 was quantified by manual counting of dissociated cells ([…]). Error bars are standard deviation calculated from at least two biological replicates. […] (FIG. 8F) Motor neuron differentiation at cervical, thoracic, and lumbar spinal cord depths, where the motor neuron precursors show region-specific patterns of FoxP1, Isl1, and Hb9 co-expression. (FIG. 8G) Neuronal maturation from cervical, thoracic, and lumbar patterned NSCs, as assessed by immunocytochemistry (top panel; DAPI (blue) is overlaid in all images; Scale bars, 20 m) and RT-PCR (50 cycles; bottom panel).
FIGS. 9A-9C (FIG. 9A) provides additional data showing that RA induces a neuroectodermal fate and halts colinear HOX activation, using the neural differentiation scheme shown in FIG. 8B and representative hindbrain cultures assessed by qPCR. (FIG. 9B) Representative hindbrain cultures assessed by immunocytochemistry. (FIG. 9C) Representative hindbrain cultures assessed by flow cytometry. All data are presented as mean±S.D. and qPCR data are normalized to the time point of maximum expression for each gene. For the hindbrain cultures, HoxB1 and HoxB4 were quantified by immunocytochemistry relative to DAPI+ nuclei, while Sox2 and Pax6 were quantified by flow cytometry. Scale bars, 100 m.
Flow cytometry. Flow cytometry was conducted as described in the Examples above. Primary antibodies against Sox2 (mouse; 1:1000; Millipore), brachyury (goat; 1:200; R&D Systems), Pax6 (mouse; 1:200; DSHB), and HoxB4 (rat; 1:50; DSHB) were utilized. Samples were run on a FACSCaliber (BD Biosciences) and data were analyzed using Cyflogic software. Positive events were quantified by gating above the top 1% of species-matched IgG controls.
Immunocytochemistry. Immunocytochemistry was conducted as previously described. […]

## GDF11: Growth differentiation factor 11, a TGFβ family member
RA added at 120 h of neuromesodermal propagation
  HoxD10+ cells: 0%
RA added at 144 h of neuromesodermal propagation, after GDF11 treatment
  HoxD10+ cells: 89±2%

Reference: patent publication US20210371817A1, “COMPOSITIONS AND METHODS FOR PRECISE PATTERNING OF POSTERIOR NEUROECTODERM FROM HUMAN PLURIPOTENT STEM CELLS” (WISCONSIN ALUMNI RESEARCH FOUNDATION, priority 2013, published 2021)
